Assay results as given in patent publication US8921321B2, “Therapeutic strategies for prevention and treatment of alzheimer's disease” (Isis Innovation Ltd., priority 2001, dated 2014).

What was measured:
[1] = system: AD-type hyperphosphorylated tau protein; experiment: ELISA of AD-type hyperphosphorylated tau (AT8) in SH-SY5Y cell lysates; assay type: cell-based, human; settings: for Expression of AD-type hyperphosphorylated tau: drug alone, FIG. 6a
Protocol: (§1) SH-SY5Y cells were treated with three candidate agents: rapamycin (Rapa) at 100 ng/ml, doxorubicin (Doxo) at 1 μM and Dexrazoxane (DexRaz) at 200 μM and then tested one day (d1) and two days (d2) after treatment for the following 7 parameters, which are indicative of cell cycle defects and “AD-type” pathology:
(§2) In order to evaluate the effect of drug pre-treatment is protecting against the effects of oxidative stress cells were subjected to oxidative stress (by treatment with 120 μM H2O2) in the absence of drug treatment and after treatment with rapamycin or dexrazoxane, and then tested for the same parameters. Results are shown in FIGS. 1-7, panel b (FIG. 1b, FIG. 2b, FIG. 3b, FIG. 4b, FIG. 5b, FIG. 6b, FIG. 7b).
(§3) Finally, cells were treated with doxorubicin after treatment with rapamycin or dexrazoxane and then tested for the same parameters, to evaluate the effects of combined treatment. Results are shown in FIGS. 1-7, panel c (FIG. 1c, FIG. 2c, FIG. 3c, FIG. 4c, FIG. 5c, FIG. 6c, FIG. 7c).
(§4) SH-SY5Y human neuroblastoma cells were cultured in Dulbecco's modified Eagle's medium (DMEM)/F12 supplemented with 10% fetal calf serum (FCS, PAA Laboratories, Austria), 2 mM L-glutamine, 100 IU/ml penicillin and 100 μg/ml streptomycin (Gibco) in a humidified incubator at 37° C. and 5% CO2.
(§5) After 24 h incubation the culture medium was replaced by DMEM/F12 with 10% FCS containing various concentrations of drug. The cells were incubated for another 24 or 48 hours.
(§6) The cell cultures were repeated in identical conditions in order to analyze cell cycle kinetics by flow cytometry and to study protein expression.
(§7) The cultures prepared for protein expression assays were harvested after a short wash with cold PBS by scraping. The collected cells were lysed in 150 μl of lysis buffer containing 50 mM Tris-HCl (pH 7.4), 100 mM NaCl, 1 mM EDTA, 0.5% (v/v) Nonidet P-40, 50 mM NaF, 0.2 mM Na3VO4, 20 μg/ml phenylmethylsulfonyl fluoride, and 5 μg/ml leupeptin, and incubated on ice for 30 min. The cell lysate was centrifuged at 14,000 g for 20 min at 4° C. to remove insoluble pellets. Protein concentration was determined by the Bradford assay. ELISA assays were performed using a panel of antibodies. Secondary antibodies (anti rabbit or anti mouse as appropriate) conjugated to horseradish peroxidase were used.

[2] = system: amyloid precursor protein (APP); experiment: ELISA of APP expression in SH-SY5Y cell lysates; assay type: cell-based, human; settings: for Expression of APP: drug alone, FIG. 5a
Protocol: as §1, §2, §3, §4, §5, §6, §7

[3] = system: SH-SY5Y human neuroblastoma cells; experiment: Relative lengthening of the G2 phase of the cell cycle by flow cytometry; assay type: cell-based
Protocol: as §1, §2, §3, §4, §5, §6
(§8) The cultures prepared for flow cytometry were harvested after a short incubation with Trypsin EDTA (Sigma) in PBS. Cells were fixed in 70% ice-cold alcohol. Prior to staining with propidium iodide (PI) the samples were washed twice in PBS containing Triton-X at 0.1%. On flow cytometry the ratio of G1 and G2 cells was measured. Cells with sub-G1 DNA content were regarded as the apoptotic fraction.

[4] = system: SH-SY5Y human neuroblastoma cells; experiment: Relative lengthening of the G1 phase of the cell cycle by flow cytometry; assay type: cell-based; settings: drug alone, FIG. 3a
Protocol: as §1, §2
Finally, cells were treated with doxorubicin after treatment with rapamycin or dexrazoxane and then tested for the same parameters, to evaluate the effects of combined treatment. Results are shown in FIGS. 1-7, panel c (FIG. 1c, FIG. 2c, FIG. 3c, FIG. 4c, FIG. 5c, FIG. 6c, FIG. 7c). […]
The cultures prepared for flow cytometry were harvested after a short incubation with Trypsin EDTA (Sigma) in PBS. […] On flow cytometry the ratio of G1 and G2 cells was measured. […]

[5] = system: AD-type paired helical filament (PHF) tau protein; experiment: ELISA of AD-type PHF tau (Tau2) in SH-SY5Y cell lysates; assay type: cell-based, human; settings: for Expression of AD-type PHF tau: drug alone, FIG. 7a
Protocol: as §1, §2, §3, §4, §5, §6, §7

[6] = system: SH-SY5Y human neuroblastoma cells; experiment: Apoptosis by flow cytometry (sub-G1 DNA content); assay type: cell-based; settings: drug alone: rapamycin 100 ng/ml, doxorubicin 1 μM, dexrazoxane 200 μM, FIG. 2a
Protocol: as §1, §2, §3, §4, §5, §6, §8

[7] = system: SH-SY5Y human neuroblastoma cells; experiment: MTT proliferation and cell survival assay; assay type: cell-based; settings: drug alone: rapamycin 100 ng/ml, doxorubicin 1 μM, dexrazoxane 200 μM; vs control cultures; FIG. 1a
Protocol: as §1, §2
Finally, cells were treated with doxorubicin after treatment with rapamycin or dexrazoxane and then tested for the same parameters, to evaluate the effects of combined treatment. […]
Cell survival and proliferation was assessed by MTT proliferation and cell survival assay, performed according to the manufacturers recommendations (Chemicon International, Ltd., Hampshire, UK) in the final 4 hours of the 24 hours period. The results of the assay were evaluated using an Opsys MR ELISA plate reader (Dynex Technologies, Middlesex, UK) at 570 nm with a reference wavelength of 630 nm.

AD-related proteins = experiment: ELISA of AD-related proteins overall (APP, phospho tau, PHF tau) in SH-SY5Y cell lysates; assay type: cell-based, human
Protocol: as §1, §2, §3, §4, §5, §6
The cultures prepared for protein expression assays were harvested after a short wash with cold PBS by scraping. The collected cells were lysed in 150 μl of lysis buffer containing 50 mM Tris-HCl (pH 7.4), 100 mM NaCl, 1 mM EDTA, 0.5% (v/v) Nonidet P-40, 50 mM NaF, 0.2 mM Na3VO4, 20 μg/ml phenylmethylsulfonyl fluoride, and 5 μg/ml leupeptin, and incubated on ice for 30 min. […] Protein concentration was determined by the Bradford assay. […]

[8] = drug alone, after 1 day (day 2), FIG. 4a

## C[C@@H](CN1CC(=O)NC(=O)C1)N1CC(=O)NC(=O)C1 [dexrazoxane, Dexrazoxane]
[1]; day two
  Expression of AD-type hyperphosphorylated tau: by day two all three proteins were reduced in the cell lysates
[1]; first day
  Expression of AD-type hyperphosphorylated tau: increased the expression of all three AD-related proteins on the first day
[1]; drug pre-treatment followed by doxorubicin, FIG. 6c
  Phospho-tau production: did not significantly effect the phospho-tau production
[2]; day two
  Expression of APP: by day two all three proteins were reduced in the cell lysates
[2]; first day
  Expression of APP: increased the expression of all three AD-related proteins on the first day
[2]; drug pre-treatment followed by doxorubicin, FIG. 5c
  APP production: reduction of the APP and PHF-tau production
[3]; [8]
  Length of the G2 phase of the cell cycle: massive G2 lengthening on day 2
[3]; drug alone, day one, FIG. 4a
  Length of the G2 phase of the cell cycle: little change in G2 time on day one
[3]; drug pre-treatment followed by doxorubicin, FIG. 4c
  Length of the G2 phase of the cell cycle: increased the G2 lengthening effect of doxorubicin
[4]
  Length of the G1 phase of the cell cycle: acceleration of the G1 phase of the cell cycle
[5]; day two
  Expression of AD-type PHF tau: by day two all three proteins were reduced in the cell lysates
[5]; first day
  Expression of AD-type PHF tau: increased the expression of all three AD-related proteins on the first day
[5]; drug pre-treatment followed by doxorubicin, FIG. 7c
  PHF tau formation: reduction of the APP and PHF-tau production
[6]
  Apoptosis: did not seem to protect cells against apoptotic cell death as efficiently as rapamycin did
[6]; listed as Dexrazoxane
  Apoptosis: did not confer protection against cell death on its own
[7]
  Cell survival and proliferation (cell numbers): reduced cell numbers only after 2 days of treatment
AD-related proteins; drug alone
  AD-related protein expression (overall): effectively reduced AD-related protein expression after two days in culture
AD-related proteins; drug pre-treatment followed by doxorubicin, summary statement
  AD-related protein expression (overall): protective effects against AD-related protein expression became more robust

## COc1cccc2c1C(=O)c1c(O)c3c(c(O)c1C2=O)C[C@@](O)(C(=O)CO)C[C@@H]3O[C@H]1C[C@H](N)[C@H](O)[C@H](C)O1 [doxorubicin]
[1]
  Expression of AD-type hyperphosphorylated tau: reduction of phospho-tau
[2]
  Expression of APP: elevated expression of APP
[3]; drug alone, FIG. 4a
  Length of the G2 phase of the cell cycle: lengthening of the G2 phase
[3]; drug alone, FIG. 4a, listed as Doxorubicin
  Length of the G2 phase of the cell cycle: lengthening of the G2 phase of the cell cycle
[3]; [8]
  Length of the G2 phase of the cell cycle: G2 inhibitory effect diminished
[4]; after 1 day (day 2)
  Length of the G1 phase of the cell cycle: effect on G1 was reversed after 1 day
[5]
  Expression of AD-type PHF tau: elevated expression
[6]
  Apoptosis: seems to be protective against apoptotic cell death
[6]; listed as Doxorubicin
  Apoptosis: appeared to be protective against apoptosis
[7]
  Cell survival and proliferation (cell numbers): reduced cell numbers
AD-related proteins; drug alone
  AD-related protein expression (overall): elevation of AD-related protein expression
